Assay [1] has as its target T1, 5HT1A-serotoninergic receptor (Homo sapiens, UniProt P08908).
T1 sequence (P08908 1-422): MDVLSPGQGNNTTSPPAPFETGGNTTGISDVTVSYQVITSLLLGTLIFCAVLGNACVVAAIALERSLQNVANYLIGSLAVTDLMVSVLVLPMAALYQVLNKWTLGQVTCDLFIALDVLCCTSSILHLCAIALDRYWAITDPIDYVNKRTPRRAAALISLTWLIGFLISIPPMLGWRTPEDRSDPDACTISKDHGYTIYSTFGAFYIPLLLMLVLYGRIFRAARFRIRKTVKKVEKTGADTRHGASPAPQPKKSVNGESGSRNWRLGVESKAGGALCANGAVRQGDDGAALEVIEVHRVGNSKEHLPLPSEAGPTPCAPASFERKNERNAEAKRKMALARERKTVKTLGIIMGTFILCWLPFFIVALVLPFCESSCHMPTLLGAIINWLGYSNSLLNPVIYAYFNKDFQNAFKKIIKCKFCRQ
As to the kind of experiment: Radioligand binding, cloned 5-HT1A-serotoninergic receptor in HeLa membranes ([3H]8-OH-DPAT). Set-up: expressed in transfected cells; host or cells: HeLa. The following applies: cloned human 5-HT1A receptor in HeLa membranes, mean Ki, read-out: Affinity for 5-HT1A receptor, cloned receptors (Ki). Here is the method: HeLa cells were grown as monolayers in Dulbecco's Modified Eagle medium (DMEM) supplemented with 10% foetal calf serum and gentamicin (100 μg/mL), 5% CO2, at 37° C. The cells were detached from the growth flask at 95% confluence by a cell scraper and were lysed in ice-cold Tris-5-mM and EDTA-5-mM buffer (pH 7.4). The homogenates were centrifuged at 40000×g×20 minutes and the membranes were resuspended in a small volume of ice-cold buffer containing Tris 5 mM and EDTA 5 mM (pH 7.4), and immediately frozen and stored at −70° C. until use.
Non-specific binding was determined in the presence of 10 μM 5-HT. The incubation was stopped by addition of ice-cold Tris buffer and rapid filtration through 0.2% polyethyleneimine-pretreated Schleicher & Schuell filters.
(§1) Data were expressed as mean Ki.

The target in another assay is T2, α1L adrenoceptor (Oryctolagus cuniculus, UniProt O02824).
T2 sequence (O02824 1-466): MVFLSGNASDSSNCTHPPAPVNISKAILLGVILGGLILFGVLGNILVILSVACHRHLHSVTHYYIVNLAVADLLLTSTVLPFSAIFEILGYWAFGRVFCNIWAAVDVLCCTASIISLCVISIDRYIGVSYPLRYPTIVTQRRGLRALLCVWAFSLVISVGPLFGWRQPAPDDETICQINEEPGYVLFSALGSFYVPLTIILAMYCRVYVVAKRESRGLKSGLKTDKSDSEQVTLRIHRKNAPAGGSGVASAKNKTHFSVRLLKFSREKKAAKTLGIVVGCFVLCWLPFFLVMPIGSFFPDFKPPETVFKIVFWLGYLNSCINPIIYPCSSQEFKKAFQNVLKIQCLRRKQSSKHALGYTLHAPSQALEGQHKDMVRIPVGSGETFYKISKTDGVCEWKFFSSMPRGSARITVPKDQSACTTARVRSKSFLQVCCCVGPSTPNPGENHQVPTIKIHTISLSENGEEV
As to the kind of experiment: Functional antagonism of noradrenaline-induced contractions of rabbit aorta pretreated with chloroethylclonidine. It is filed as biochemical. To be noted: NA-induced contractions of rabbit aorta pretreated with chloroethylclonidine. Here is the method: Adult male New Zealand rabbits were sacrificed by cervical dislocation. The aorta was removed, placed in Krebs-Henseleit buffer and dissected free of adhering tissue. […] Desmethylimipramine (0.1 μm) and corticosterone (1 μM) to block neuronal and extraneuronal uptake of NA, (±)-propranol (1 μM) to block β adrenoceptors and yohimbine (0.1 μM) to block α2 adrenoceptors, were added to the buffer.
The preparations were allowed to equilibrate for 60 minutes and then primed every thirty minutes with 10 μM NA for three times. The aortic rings were then incubated with the alkylating agent chloroethylclonidine (5×10^−5 M) for 30 minutes and then washed extensively three times (in 0.5 hours) before constructing the NA-concentration/response curve. After washout of NA and re-equilibration of the tissue (45 minutes), the drug to be tested was added and, after 30 minutes, a second NA-cumulative-concentration/response curve constructed.
Each antagonist concentration was tested using 2-3 aortic rings from different rabbits.
Dose ratios (i.e., the ratio between the concentrations of NA required to produce half-maximal response in the presence and in the absence of the test antagonist) were calculated for each concentration of the compounds. The logarithm of these dose ratio-1 was plotted against the logarithm of the compound concentrations (Schild plot) to evaluate the affinity constant Kb.
When only one or two concentrations of the test compounds were utilised, the apparent Kb value was calculated using the formula: Kb=[B]/(DOSE RATIO-1), where B is the antagonist concentration.

For assay [2], the target named is T3, α1b-adrenoceptor (recombinant) (Homo sapiens, UniProt P35368).
T3 construct: expressed in transfected cells
T3 sequence (P35368 1-520): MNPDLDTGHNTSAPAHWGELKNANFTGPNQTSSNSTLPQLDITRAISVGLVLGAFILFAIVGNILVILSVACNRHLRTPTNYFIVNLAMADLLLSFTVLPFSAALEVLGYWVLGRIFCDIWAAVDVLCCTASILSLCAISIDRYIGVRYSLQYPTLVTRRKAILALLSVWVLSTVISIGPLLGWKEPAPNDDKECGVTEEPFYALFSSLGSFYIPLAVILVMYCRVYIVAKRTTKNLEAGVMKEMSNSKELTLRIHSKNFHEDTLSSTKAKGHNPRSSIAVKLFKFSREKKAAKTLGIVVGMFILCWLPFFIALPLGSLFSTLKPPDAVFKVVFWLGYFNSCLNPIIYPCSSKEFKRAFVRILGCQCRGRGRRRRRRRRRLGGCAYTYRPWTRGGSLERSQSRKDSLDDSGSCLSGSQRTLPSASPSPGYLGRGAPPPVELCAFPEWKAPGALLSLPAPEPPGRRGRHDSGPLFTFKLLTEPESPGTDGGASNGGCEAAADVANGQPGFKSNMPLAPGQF
Briefly: Radioligand binding, cloned α1b-adrenoceptor ([3H]prazosin). The following applies: read-out: Affinity for recombinant α1b-adrenoceptor, cloned receptors (Ki). Here is the method:
(§2) Determination of affinity for cloned subtypes of α1-adrenoceptor subtypes was performed in membranes from cells transfected by electroporation with DNA expressing the genes encoding each α1-adrenoceptor subtype.
(§3) Non-specific binding was determined in the presence of 10 μM phentolamine.
(§4) Incubation was stopped by addition of ice-cold Tris buffer and rapid filtration through 0.2% polyethyleneimine-pretreated Schleicher & Schuell GF52 filters.
as §1

In assay [3] the target is T4, α1d-adrenoceptor (recombinant) (Homo sapiens, UniProt P25100).
T4 sequence (P25100 1-572): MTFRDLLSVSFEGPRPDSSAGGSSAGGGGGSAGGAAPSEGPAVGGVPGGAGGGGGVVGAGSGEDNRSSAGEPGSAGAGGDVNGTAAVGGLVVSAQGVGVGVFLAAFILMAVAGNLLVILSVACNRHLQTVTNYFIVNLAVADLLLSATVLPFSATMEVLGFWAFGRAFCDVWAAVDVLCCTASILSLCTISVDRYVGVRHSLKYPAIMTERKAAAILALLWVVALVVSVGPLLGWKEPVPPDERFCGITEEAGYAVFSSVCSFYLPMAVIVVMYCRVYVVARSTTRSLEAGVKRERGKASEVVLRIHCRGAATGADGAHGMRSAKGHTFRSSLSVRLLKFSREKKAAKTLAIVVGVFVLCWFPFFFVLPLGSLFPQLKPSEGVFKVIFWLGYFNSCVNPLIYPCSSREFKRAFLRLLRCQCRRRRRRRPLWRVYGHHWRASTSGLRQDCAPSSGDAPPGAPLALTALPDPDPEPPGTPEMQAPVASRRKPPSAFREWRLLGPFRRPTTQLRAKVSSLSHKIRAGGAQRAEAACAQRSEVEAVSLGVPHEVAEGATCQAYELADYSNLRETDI
As to the kind of experiment: Radioligand binding, cloned α1d-adrenoceptor ([3H]prazosin). To be noted: read-out: Affinity for recombinant α1d-adrenoceptor, cloned receptors (Ki). Here is the method: as §2, §3, §4, §1

For assay [4], the target named is T5, α1a-adrenoceptor (recombinant) (Homo sapiens, UniProt P35348).
T5 construct: expressed in transfected cells
T5 sequence (P35348 1-466): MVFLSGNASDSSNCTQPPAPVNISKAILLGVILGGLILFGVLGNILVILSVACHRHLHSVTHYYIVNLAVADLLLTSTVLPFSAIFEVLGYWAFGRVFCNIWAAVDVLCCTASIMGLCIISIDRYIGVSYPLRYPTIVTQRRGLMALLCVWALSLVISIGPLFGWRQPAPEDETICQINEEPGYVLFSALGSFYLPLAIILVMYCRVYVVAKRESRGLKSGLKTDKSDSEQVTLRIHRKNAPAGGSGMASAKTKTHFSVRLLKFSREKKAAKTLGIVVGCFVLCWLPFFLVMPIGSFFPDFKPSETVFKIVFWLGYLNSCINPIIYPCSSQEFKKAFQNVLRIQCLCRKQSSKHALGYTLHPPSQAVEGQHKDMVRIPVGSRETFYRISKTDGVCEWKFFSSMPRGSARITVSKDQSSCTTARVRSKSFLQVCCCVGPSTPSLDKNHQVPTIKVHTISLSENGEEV
Briefly: Radioligand binding, cloned α1a-adrenoceptor ([3H]prazosin). The following applies: read-out: Affinity for recombinant α1a-adrenoceptor, cloned receptors (Ki). Here is the method: as §2, §3, §4, §1

The structures appear in SMILES notation.

On to `COc1ccc(Cl)cc1N1CCN(CCCNC(=O)c2cccc3c(=O)c(C)c(NC(=O)OC(C)(C)C)oc23)CC1.O` [Example 3, 2-(1,1-Dimethylethoxycarbonylamino)-8-{3-[4-(5-chloro-2-methoxyphenyl)-1-piperazinyl]propylcarbamoyl}-3-methyl-4-oxo-4H-1-benzopyran monohydrate], for which the Ki came to 81.9 nM in assay [1], 0.32 nM in assay [2], 0.45 nM in assay [3] and 0.2 nM in assay [4]. On α1L adrenoceptor, the “Functional affinity for the α1L adrenoceptor subtype, pKb” value (“Functional affinity” for short) came out at 8.43.
For `COc1ccc(Cl)cc1N1CCN(CCCNC(=O)c2cccc3c(=O)c(C)c(C(=O)N(C)C)oc23)CC1` [Example 6, 8-{3-[4-(5-Chloro-2-methoxyphenyl)-1-piperazinyl]propylcarbamoyl}-3-methyl-2-dimethylcarbamoyl-4-oxo-4H-1-benzopyran] the same measures were 68.4 nM, 3.56 nM, 3.83 nM, 0.23 nM and 8.55.
Taken in the same sequence, the figures for `Cc1c(C(N)=O)oc2c(C(=O)NCCCN3CCN(c4cc(F)ccc4OCC(F)(F)F)CC3)cccc2c1=O` [Example 8, 2-Carbamoyl-8-<3-{4-[5-fluoro-2-(2,2,2-trifluoroethoxy)phenyl]-1-piperazinyl}-propylcarbamoyl>-3-methyl-4-oxo-4H-1-benzopyran] were 39.5 nM, 9.91 nM, 3.02 nM, 0.144 nM and 9.
With `COc1ccc(Cl)cc1N1CCN(CCCNC(=O)c2cccc3c(=O)c(C)c(C#N)oc23)CC1` [Example 11, 8-{3-[4-(5-Chloro-2-methoxyphenyl)-1-piperazinyl]propylcarbamoyl}-2-cyano-3-methyl-4-oxo-4H-1-benzopyran], the Ki in assay [1] was found to be 24.4 nM; in assay [2], 0.78 nM; in assay [3], 2.72 nM; in assay [4], 0.38 nM. At α1L adrenoceptor, the “Functional affinity” value came to 8.45.
`COc1ccc(C(F)(F)F)cc1N1CCN(CCCNC(=O)c2cccc3c(=O)c(C)c(-c4ccccc4)oc23)CC1` [Example 17, 8-{3-[4-(2-Methoxy-5-trifluoromethylphenyl)-1-piperazinyl]propylcarbamoyl}-3-methyl-4-oxo-2-phenyl-4H-1-benzopyran]: on α1L adrenoceptor, the “Functional affinity” value was 8.03. Also, the results for the Ki in assay [2], in assay [3] and in assay [4] were 9.42 nM, 13.1 nM and 1.6 nM, respectively.
As to `Cc1c(-c2ccccc2)oc2c(C(=O)NCCCN3CCN(c4ccc(F)cc4OCC(F)(F)F)CC3)cccc2c1=O` [Example 19, 8-<3-{4-[4-Fluoro-2-(2,2,2-trifluoroethoxy)phenyl]-1-piperazinyl}propylcarbamoyl>-3-methyl-4-oxo-2-phenyl-4H-1-benzopyran], the Ki in assay [1] came to 22.4 nM; in assay [2], 2.61 nM; in assay [3], 4.79 nM; in assay [4], 0.136 nM. Further, the “Functional affinity” value at α1L adrenoceptor came out at 8.72.
Take `COc1cc2nc(N3CCN(C(=O)C4CCCO4)CC3)nc(N)c2cc1OC` (stereo not shown) [terazosin, reference compound]: the “Functional affinity” value at α1L adrenoceptor stood at 7.25. Moreover, the inhibition constant (Ki) in assay [3] turned out to be 2.4 nM.

Values taken from patent publication US6403594B1, “Benzopyran derivatives” (Recordati, S.A. Chemical and Pharmaceutical Company, priority 1999, dated 2002).
